Assay results taken from patent US12398101B2, “Herbicidal 2-azaspiro[3-5]nonane compounds” (SYNGENTA CROP PROTECTION AG, priority 2018, dated 2025).

Experiments:
Assay type in all cases: in vivo
Conditions in all cases: 250 g/h, evaluated after 13 days
[1] = test system: Avena fatua (AVEFA); assay: Glasshouse herbicide test, pre-emergence application
Procedure: (§1) Seeds of a variety of test species are sown in standard soil in pots (Lolium perenne (LOLPE), Setaria faberi (SETFA), Echinochloa crus-galli (ECHCG), Avena fatua (AVEFA)). After cultivation for one day (pre-emergence) or after 8 days cultivation (post-emergence) under controlled conditions in a glasshouse (at 24/16° C., day/night; 14 hours light; 65% humidity), the plants are sprayed with an aqueous spray solution derived from the formulation of the technical active ingredient in acetone/water (50:50) solution containing 0.5% Tween 20 (polyoxyethelyene sorbitan monolaurate, CAS RN 9005-64-5). Compounds are applied at 250 g/h. The test plants are then grown in a glasshouse under controlled conditions in a glasshouse (at 24/16° C., day/night; 14 hours light; 65% humidity) and watered twice daily. After 13 days for pre and post-emergence, the test is evaluated for the percentage damage caused to the plant. The biological activities are shown in the following table on a five point scale (5=80-100%; 4=60-79%; 3=40-59%; 2=20-39%; 1=0-19%).

[2] = test system: Echinochloa crus-galli (ECHCG); assay: as above
Procedure: as §1

[3] = test system: Lolium perenne (LOLPE); assay: as above
Procedure: as §1

[4] = test system: Setaria faberi (SETFA); assay: as above
Procedure: as §1

[5] = test system: Avena fatua (AVEFA); assay: Glasshouse herbicide test, post-emergence application
Procedure: as §1

[6] = test system: Echinochloa crus-galli (ECHCG); assay: as above
Procedure: as §1

[7] = test system: Lolium perenne (LOLPE); assay: as above
Procedure: as §1

[8] = test system: Setaria faberi (SETFA); assay: as above
Procedure: as §1

Structure (SMILES) | percentage damage caused to the plant, five point scale, AVEFA [1] | percentage damage caused to the plant, five point scale, ECHCG [2] | percentage damage caused to the plant, five point scale, LOLPE [3] | percentage damage caused to the plant, five point scale, SETFA [4] | percentage damage caused to the plant, five point scale, AVEFA [5] | percentage damage caused to the plant, five point scale, ECHCG [6] | percentage damage caused to the plant, five point scale, LOLPE [7] | percentage damage caused to the plant, five point scale, SETFA [8]
CC#Cc1cc(C)c(C2C(=O)CC3(CC2=O)CN(S(=O)(=O)CC)C3)c(C)c1 [Compound 1.002] | 5 (5=80-100%) | 5 (5=80-100%) | 5 (5=80-100%) | 5 (5=80-100%) | 5 (5=80-100%) | 5 (5=80-100%) | 5 (5=80-100%) | 5 (5=80-100%)
CC#Cc1cc(C)c(C2C(=O)CC3(CC2=O)CN(C(=O)c2ccccc2)C3)c(C)c1 [Compound 1.003, 2-benzoyl-7-(2,6-dimethyl-4-prop-1-ynyl-phenyl)-2-azaspiro[3.5]nonane-6,8-dione] | 5 (5=80-100%) | 5 (5=80-100%) | 5 (5=80-100%) | 5 (5=80-100%) | 5 (5=80-100%) | 5 (5=80-100%) | 5 (5=80-100%) | 5 (5=80-100%)
CC#Cc1cc(C)c(C2C(=O)CC3(CC2=O)CN(C(=O)c2ccccn2)C3)c(C)c1 [Compound 1.004] | 5 (5=80-100%) | 5 (5=80-100%) | 5 (5=80-100%) | 5 (5=80-100%) | 5 (5=80-100%) | 5 (5=80-100%) | 5 (5=80-100%) | 5 (5=80-100%)
CC#Cc1cc(C)c(C2C(=O)CC3(CC2=O)CN(C(=O)COC)C3)c(C)c1 [Compound 1.005] | 5 (5=80-100%) | 5 (5=80-100%) | 5 (5=80-100%) | 5 (5=80-100%) | 5 (5=80-100%) | 5 (5=80-100%) | 5 (5=80-100%) | 5 (5=80-100%)
CC#Cc1cc(C)c(C2C(=O)CC3(CC2=O)CN(C(=O)NC(C)(C)C)C3)c(C)c1 [Compound 1.006] | 2 (2=20-39%) | 5 (5=80-100%) | 5 (5=80-100%) | 5 (5=80-100%) | 5 (5=80-100%) | 5 (5=80-100%) | 5 (5=80-100%) | 5 (5=80-100%)
CC#Cc1cc(C)c(C2C(=O)CC3(CC2=O)CN(C(=O)NC(=O)C(C)(C)C)C3)c(C)c1 [Compound 1.007] | 3 (3=40-59%) | 5 (5=80-100%) | 5 (5=80-100%) | 5 (5=80-100%) | 4 (4=60-79%) | 5 (5=80-100%) | 5 (5=80-100%) | 4 (4=60-79%)
CC#Cc1cc(C)c(C2C(=O)CC3(CC2=O)CN(C(=O)C2CC2)C3)c(C)c1 [Compound 1.008, 2-(cyclopropanecarbonyl)-7-(2,6-dimethyl-4-prop-1-ynyl-phenyl)-2-azaspiro[3.5]nonane-6,8-dione] | 5 (5=80-100%) | 5 (5=80-100%) | 5 (5=80-100%) | 5 (5=80-100%) | 5 (5=80-100%) | 5 (5=80-100%) | 5 (5=80-100%) | 5 (5=80-100%)
